The test system of this experiment is Human ES cells (KhES-1-derived). As to the kind of experiment: Adhesion culture of cells dispersed from human ES cell-derived aggregates with added factors; level of epithelial formation observed under a microscope (Example 5). Format: cell-based. The note with it: observed at day 40, compared to the control free of the addition. How it is done: Human ES cells (KhES-1-derived) were cultured according to the methods described in “Ueno, M. et al. PNAS 2006, 103(25), 9554-9559” and “Watanabe, K. et al. Nat Biotech 2007, 25, 681-686”. As the medium, a medium obtained by adding 20% KSR KNOCKOUT™ Serum Replacement; Invitrogen), 0.1 mM 2-mercaptoethanol, 2 mM L-glutamine, 1× non-essential amino acid, 5 ng/ml bFGF to DMEM/F12 medium (Sigma) was used. The cultured ES cells were dispersed into single cells using TrypLE Express (Invitrogen), and the above-mentioned cultured ES cells were suspended in 100 μl of a serum-free medium at 1.2×10^4 cells per one well of a non-cell adhesive 96 well culture plate (sumilon spheroid plates, SUMITOMO BAKELITE Co., Ltd.) to allow for rapid formation of aggregates and subjected to culture at 37° C., 5% CO2. As the serum-free medium therefor, a serum-free medium obtained by adding 10% KSR, 450 μM 1-monothioglycerol, 1× Chemically defined lipid concentrate, 20 μM Y27632 to a 1:1 mixture of F-12 medium and IMDM medium was used. At day 3 from the start of the floating culture, BMP4 was added al a concentration 1.5 nM, and floating culture was continued. A half amount of the culture medium in the well was exchanged every 3 days with the above-mentioned medium not supplemented with a substance acting on the BMP signal transduction pathway. […]

On to `Cc1c[nH]c(-c2cnc(NCCNc3ccc(C#N)cn3)nc2-c2ccc(Cl)cc2Cl)n1` [CHIR99021], for which the “level of epithelial formation (pigmentation of retinal pigment epithelial cells)” value (3 μM added at day 24 from the start of the floating culture, FIG. 5B) is recorded as “differentiated into darker retinal pigment epithelial cells”.

B1: recombinant human BMP4 protein: BMP protein, a substance acting on the BMP signal transduction pathway (protein, UniProt P12644 293-408, looked up)
Bone morphogenetic protein 4: SPKHHSQRARKKNKNCRRHSLYVDFSDVGWNDWIVAPPGYQAFYCHGDCPFPLADHLNSTNHAIVQTLVNSVNSSIPKACCVPTELSAISMLYLDEYDKVVLKNYQEMVVEGCGCR
For B1, for the setting “1 nM added at day 24, FIG. 5E”, the “level of epithelial formation (uniformity of epithelium)” value is reported as “more uniform epithelium”.

The record behind these values is patent US10760050B2, “Method for producing retinal pigment epithelial cells” (SUMITOMO CHEMICAL COMPANY, LIMITED, priority 2013, dated 2020).
